Test results taken from patent publication US10017713B2, “Fluorinated surfactant containing compositions” (3M INNOVATIVE PROPERTIES COMPANY, priority 2014, dated 2018).

Legend:
[1] = Cleaning performance: % particle removal from heavily soiled CMOS sensors
Description: A study was conducted using Novec 7100 and Novec 71IPA base solvents with and without the soluble surfactants identified above to determine the impact of dissolved surfactant on cleaning performance of the fluids. In some cases a single surfactant was employed. In other cases a mixture of two surfactants was employed. In all cases the total concentration of fluorochemical surfactant employed was 0.20 wt % (or 2000 ppm) in the base fluid. Cleaning results were compared to pure Novec fluid controls containing no surfactant. The cleaning trials were performed on heavily soiled CMOS sensors containing a high pixel density. These sensors are known to be extremely difficult to clean such that they are essentially free of (particle contaminants.
A precision solvent cleaning system (SK-04Y-6008 customized cleaning system from YMPT, Thailand) was used to clean the CMOS sensors using the process outlined below.
The cleaning performance of each cleaning fluid composition was judged based on the percentage of particles originally present on the CMOS surface that were removed by the cleaning fluid after completion of the cleaning process. The percentage of particles removed was determined by optical microscopy inspection of the CMOS sensors before and after cleaning.
The original (heavily soiled) CMOS sensor was first inspected using an optical microscope and a series of Pre-Clean images were recorded. The CMOS sensor was then cleaned in the precision cleaning system using the process described above and the proscribed solvent/surfactant combination. After cleaning, the CMOS sensor was inspected again by optical microscopy and a Post-Clean image recorded to determine particle counts remaining on the sensor. In this way, the % removal of particles after cleaning of CMOS sensors was determined.

[2] = Surfactant solubility in hydrofluoroether (HFE) solvents by visual clarity; assay type: physicochemical
Description: A series of C4F9SO2N-based fluorochemical surfactants were examined to determine their solubility in various hydrofluoro ether (HFE) solvents, including four segregated HFEs (Novec 7100, 7200, 7300, and 7500 available from 3M Company, St Paul, Minn.), one non-segregated HFE (PF-7600 available from 3M Company), and one HFE-Alcohol blend (Novec 71IPA available from 3M Company). Solubility was determined by preparing mixtures of each surfactant in the solvent at various concentrations and determining solubility at each concentration by visual inspection based on the clarity of the solutions after thorough mixing at room temperature. Surfactants that were not completely soluble at a given concentration produced hazy mixtures, whereas surfactants that were completely soluble at a given concentration produced clear homogeneous solutions with no haze. The highest concentration of each surfactant to give a clear, homogeneous solution in each HFE solvent (expressed as wt % surfactant dissolved in HFE solvent) was taken as the maximum solubility.

[3] = Novec 71IPA, total surfactant 0.20 wt %
[4] = Novec 71IPA, room temperature (23° C.)
[5] = Novec 7100, room temperature (23° C.)
[6] = Novec 7200, room temperature (23° C.)
[7] = Novec 7300, room temperature (23° C.)
[8] = PF-7600, room temperature (23° C.)
[9] = Novec 7500, room temperature (23° C.)

| Compound | % Removal (Percent Particle Removal) [1, 3] | Max. Solubility [2, 4] [wt %] | Max. Solubility [2, 5] [wt %] | Max. Solubility [2, 6] | Max. Solubility [2, 7] | Max. Solubility [2, 8] | % Removal (Percent Particle Removal) ([1]; Novec 7100, surfactant 0.2 %) | Max. Solubility [2, 9] [wt %] | solubility in HFE solvents ([2]; room temperature) | melting point [°C] |
| --- | --- | --- | --- | --- | --- | --- | --- | --- | --- | --- |
| O=S(=O)(N(CCO)CCO)C(F)(F)C(F)(F)C(F)(F)C(F)(F)F [FBSEE (IX), C4F9SO2N(CH2CH2OH)2] | 90-100% | 8.1 | 0.06 | 0.04 wt % | 0.03 wt % | 0.6 wt % | – | – | – | – |
| C4F9SO2N(CH3)(CH2CH2O)7CH3 [FC-4171 (XI), reference compound] | 50-80% | >10 | >10 | >10 wt % | 0.5 wt % | >10 wt % | 50-80% | 0.1 | – | – |
| O=S(=O)(NCCO)C(F)(F)C(F)(F)C(F)(F)C(F)(F)F [H-FBSE (X), C4F9SO2NH(CH2CH2OH)] | 50-80% | >10 | 0.21 | 0.16 wt % | 0.06 wt % | 1.5 wt % | – | – | – | – |
| O=S(=O)(N(CCOCCO)CCOCCO)C(F)(F)C(F)(F)C(F)(F)C(F)(F)F [FBS(EE)2 (IV), C4F9SO2N(CH2CH2OCH2CH2OH)2] | 50-80% | >10 | >10 | 0.2-0.5 wt % | 0.2-0.3 wt % | 8-9 wt % | 50-80% | 0.2 | – | – |
| CC(O)CN(CCO)S(=O)(=O)C(F)(F)C(F)(F)C(F)(F)C(F)(F)F (stereo not drawn) [FBSEP (VIII), C4F9SO2N(CH2CH2OH)CH2CH(CH3)OH] | – | >10 | 4.0 | – | 1.4 wt % | >10 wt % | – | – | improved solubility | – |
| O=S(=O)(NCCOCCO)C(F)(F)C(F)(F)C(F)(F)C(F)(F)F [H-FBS(EE) (III), C4F9SO2N(H)CH2CH2OCH2CH2OH] | 50-80% | >10 | >10 | >10 wt % | >10 wt % | >10 wt % | 50-80% | >10 | – | 35.7 |
| O=S(=O)(N(CCO)CCOCCO)C(F)(F)C(F)(F)C(F)(F)C(F)(F)F [FBSE(EE) (V), C4F9SO2N(CH2CH2OCH2CH2OH) (CH2CH2OH)] | 90-100% | >10 | 1.5 | 0.8 wt % | 0.9 wt % | >10 wt % | 90-100% | 0.2 | – | 45.1 |
